Results as given in the NIST ThermoML archive (doi:10.1021/je030168a).
Numbers after ± are expanded uncertainties.

Experiments:
[1] = Liquid
[2] = excess molar enthalpy (molar enthalpy of mixing); xn = mol fraction of the nth substance listed; conditions: 298.15 K, 101.3 kPa, Liquid, Flow calorimetry

CCCCBr [1-bromobutane]
vapor or sublimation pressure ([1]; 278.15 K): 1.86 ± 0.022 kPa
vapor or sublimation pressure ([1]; 283.15 K): 2.48 ± 0.023 kPa
vapor or sublimation pressure ([1]; 288.15 K): 3.265 ± 0.026 kPa
vapor or sublimation pressure ([1]; 293.15 K): 4.261 ± 0.029 kPa
vapor or sublimation pressure ([1]; 298.15 K): 5.506 ± 0.033 kPa
vapor or sublimation pressure ([1]; 303.15 K): 7.039 ± 0.038 kPa
vapor or sublimation pressure ([1]; 308.15 K): 8.899 ± 0.043 kPa
vapor or sublimation pressure ([1]; 313.15 K): 11.15 ± 0.05 kPa
vapor or sublimation pressure ([1]; 318.15 K): 13.87 ± 0.059 kPa
vapor or sublimation pressure ([1]; 323.15 K): 17.09 ± 0.069 kPa

CCCCBr [1-bromobutane] + CCCCCCCCO
excess molar enthalpy ([2]; x2 = 0.025): 0.087 ± 0.00191 kcal/mol
excess molar enthalpy ([2]; x2 = 0.0571): 0.144 ± 0.00311 kcal/mol
excess molar enthalpy ([2]; x2 = 0.1224): 0.201 ± 0.0043 kcal/mol
excess molar enthalpy ([2]; x2 = 0.1949): 0.233 ± 0.00502 kcal/mol
excess molar enthalpy ([2]; x2 = 0.2361): 0.244 ± 0.00526 kcal/mol
excess molar enthalpy ([2]; x2 = 0.276): 0.25 ± 0.00526 kcal/mol
excess molar enthalpy ([2]; x2 = 0.3205): 0.253 ± 0.0055 kcal/mol
excess molar enthalpy ([2]; x2 = 0.367): 0.252 ± 0.0055 kcal/mol
excess molar enthalpy ([2]; x2 = 0.4661): 0.24 ± 0.00526 kcal/mol
excess molar enthalpy ([2]; x2 = 0.5784): 0.212 ± 0.00454 kcal/mol
excess molar enthalpy ([2]; x2 = 0.7064): 0.165 ± 0.00359 kcal/mol
excess molar enthalpy ([2]; x2 = 0.8484): 0.0956 ± 0.00215 kcal/mol
excess molar enthalpy ([2]; x2 = 0.9311): 0.0488 ± 0.0012 kcal/mol

CCCCCCCCCCO [decan-1-ol]
vapor or sublimation pressure ([1]; 308.15 K, Closed cell (Static) method): 0.001 kPa
vapor or sublimation pressure ([1]; 313.15 K, Closed cell (Static) method): 0.004 kPa
vapor or sublimation pressure ([1]; 318.15 K, Closed cell (Static) method): 0.007 ± 0.01 kPa
vapor or sublimation pressure ([1]; 323.15 K, Closed cell (Static) method): 0.011 ± 0.01 kPa

CCCCCCCCO [octan-1-ol]
vapor or sublimation pressure ([1]; 288.15 K): 0.001 kPa
vapor or sublimation pressure ([1]; 293.15 K): 0.003 kPa
vapor or sublimation pressure ([1]; 298.15 K): 0.007 ± 0.01 kPa
vapor or sublimation pressure ([1]; 303.15 K): 0.011 ± 0.01 kPa
vapor or sublimation pressure ([1]; 308.15 K): 0.019 ± 0.01 kPa
vapor or sublimation pressure ([1]; 313.15 K): 0.031 ± 0.01 kPa
vapor or sublimation pressure ([1]; 318.15 K): 0.051 ± 0.01 kPa
vapor or sublimation pressure ([1]; 323.15 K): 0.08 ± 0.01 kPa
